# Test results as given in patent US9682940B2, “Indazole derivatives useful as CB-1 inverse agonists” (Janssen Pharmaceutica NV, priority 2015, dated 2017).
# Tests used:
# [1] = biological target: Human CB1R (Cannabanoid receptor 1) (Homo sapiens (Human), UniProt P21554); assay: CB-1 in vitro cAMP (HTRF) assay in HEK-293 cells; format: cell-based; conditions: HEK-293 cells stably transfected with human CB1R, 250 nM Forskolin, mean where tested more than once, read-out: CB-1 (HEK_cAMP) EC50
# Description: (§1) CB1 and CB2 receptors are Gi-coupled GPCR. Activation of CB1 and CB2 receptors results in a decrease in cAMP production. An inverse agonist of the CB1 or CB2 receptor results in the opposite effect, an increase of cAMP production. The principle of this assay is based on HTRF® technology (Homogeneous Time-Resolved Fluorescence). The method is a competitive immunoassay between native cAMP produced by cells and the cAMP labeled with the fluorophore d2. The tracer binding is quantified by a Mab anti-cAMP labeled with Eu3+TBP-NHS Cryptate (supplied as part of the assay kit). The specific signal (i.e. energy transfer) is inversely proportional to the concentration of cAMP in the standard or sample.
# (§2) Human CB1R (Cannabanoid receptor 1) was stably transfected in HEK-293 cells (DiscoveRx, cat: 93-0200C1). Human CB2R (Cannabanoid receptor 2) was stably transfected in HEK-293 cells (DiscoveRx, cat: 93-0201C1). Cell cultures were maintained in media: DMEM (Invitrogen Cat#12430-054) supplemented with 10% HI FBS (Invitrogen Cat#16140-071), 1% L-glutamine (Invitrogen Cat#25030-081), 0.2 mg/ml Hygromycin B (Invitrogen Cat#10687-010), 600 μg/mL G418 (Invitrogen Cat#10131-035), and 1× Penn/Strep (Invitrogen 15140-122). After cell expansion, aliquots were cryo-stored in media containing 5% DMSO (Pierce Cat#20684).
# (§3) One day prior to experiments media was warmed to 37° C. and the cryo-stored cells were thawed in a 37° C. water bath. The cells were then added to media (10× volume) and the mixture was centrifugated at 1000 RPM for 5 min. The supernate was removed and the cells were re-suspended in media. A sample of the cell suspension was evaluated on a Cedex XS automated cell counter (Innovatis Systems) to determine viable cells/ml. Additional media was added to the cells to achieve a final cell density of 4E5 cells/mL. The cells were then plated into 384 well PDL white solid bottom plates (Greiner, Cat#781945) at 20 μL per well using a Multidrop (Thermo Scientific). Cells were removed from Row P (location of cAMP standards). Two columns of cells were plated into a clear bottom 384 well PDL coated plate (Greiner, Cat#781944) to view confluence the day of the assay. The cell plates were lidded and stored for 15 minutes in a hood, then transferred to an incubator (37° C., 5% CO2, 95% humidity) overnight.
# (§4) DMSO was added to all wells of 384 well V bottom polystyrene plate (Greiner, Cat#781280) except to columns 1 and 13, rows O and P and wells M13-M23 and N13-N23. Test compounds (60 μL, 10 mM) were added to Column 1 and 13 (A1 through N1 and A13 through L13). Test compounds were serially diluted 1/3 by transferring and mixing 20 μl sample with 40 μL DMSO.
# (§5) DMSO (40 μL) was added to wells of 384 well V bottom polystyrene plate: O2 through O11, M14 through M23, N14 through N23, and O14 through 023. AM630 (also known as [6-iodo-2-methyl-1-[2-(4-morpholinyl)ethyl]-1H-indol-3-yl](4-methoxyphenyl)-methanone, Cayman Chemical, Cat#10006974) (60 μL, 10 mM) was added to 01; and 1-(2,4-dichlorophenyl)-7-[(4-fluorophenyl)methylene]-4,5,6,7-tetrahydro-N-1-piperidinyl-1H-indazole-3-carboxamide (60 μL, 10 mM) was added to N13. The control was serially diluted 1/3 by transferring and mixing 20 μl sample with 40 μL DMSO. This process resulted 11 doses per control, 10 mM to […].
# (§6) Cells plated the day prior to the assay in clear bottom plates were viewed on an inverse microscope to ensure confluency in the range of 60-75%. […]
# [2] = biological target: Human CB2R (Cannabanoid receptor 2) (Homo sapiens (Human), UniProt P34972); assay: CB-2 in vitro cAMP (HTRF) assay in HEK-293 cells; format: cell-based; conditions: HEK-293 cells stably transfected with human CB2R, 250 nM Forskolin, mean where tested more than once, read-out: CB-2 (HEK_cAMP) EC50
# Description: as §1, §2, §3, §4, §5, §6
# Human CB1R (Cannabanoid receptor 1), sequence (P21554 whole entry): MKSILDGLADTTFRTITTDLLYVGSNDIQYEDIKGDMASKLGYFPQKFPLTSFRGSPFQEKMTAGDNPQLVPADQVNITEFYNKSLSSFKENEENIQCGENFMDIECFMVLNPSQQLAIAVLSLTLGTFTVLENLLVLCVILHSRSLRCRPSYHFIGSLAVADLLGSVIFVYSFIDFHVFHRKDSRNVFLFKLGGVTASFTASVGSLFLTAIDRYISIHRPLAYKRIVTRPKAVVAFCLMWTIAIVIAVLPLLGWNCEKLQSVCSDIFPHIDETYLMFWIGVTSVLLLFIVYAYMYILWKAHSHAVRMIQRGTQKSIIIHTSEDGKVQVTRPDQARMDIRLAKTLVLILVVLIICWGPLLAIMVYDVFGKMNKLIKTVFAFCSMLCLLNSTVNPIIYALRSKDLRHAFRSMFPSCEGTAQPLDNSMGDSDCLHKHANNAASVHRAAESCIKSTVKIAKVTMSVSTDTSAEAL
# Human CB2R (Cannabanoid receptor 2), sequence (P34972 whole entry): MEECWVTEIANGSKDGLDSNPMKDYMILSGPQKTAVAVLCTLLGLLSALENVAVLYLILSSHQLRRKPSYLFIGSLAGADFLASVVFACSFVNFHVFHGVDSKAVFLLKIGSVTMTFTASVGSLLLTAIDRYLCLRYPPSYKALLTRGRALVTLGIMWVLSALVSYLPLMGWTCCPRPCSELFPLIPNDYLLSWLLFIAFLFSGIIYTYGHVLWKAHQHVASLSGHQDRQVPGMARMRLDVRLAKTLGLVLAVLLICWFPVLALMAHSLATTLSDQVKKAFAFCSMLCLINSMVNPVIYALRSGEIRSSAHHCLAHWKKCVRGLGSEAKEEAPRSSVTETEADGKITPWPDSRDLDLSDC
Structure (SMILES),EC50 [1] [nM],EC50 [2] [nM]
O=C(O)c1cccc(CN2CCC(c3nn(C4CC4)c4ccc(C(c5ccc(F)cc5)c5ccc(F)cc5)cc34)CC2)c1 [Compound 243],285,> 10000
O=S(=O)(N1CCC(c2nn(-c3cccc(C(F)(F)F)c3)c3ccc(C(c4ccc(Cl)cc4)c4ccc(Cl)cc4)cc23)CC1)C(F)(F)F [Compound 57],474,> 10000
Cn1nc(C2CCN(S(=O)(=O)c3ccc(C(=O)O)cc3)CC2)c2cc(C(c3ccc(Cl)cc3)c3ccc(Cl)cc3)ccc21 [Compound 62],845,> 10000
O=S(=O)(C(F)F)N1CCC(c2n[nH]c3ccc(C(c4ccc(Cl)cc4)c4ccc(Cl)cc4)cc23)CC1 [Compound 81],7320,> 10000
O=C(O)Cc1cccc(N2CCC(c3c4cc(C(c5ccc(Cl)cc5)c5ccc(Cl)cc5)ccc4nn3C3CC3)CC2)c1 [Compound 185],833,> 10000
O=C(O)CC(=O)N1CCC(c2nn(C3CC3)c3ccc(C(c4ccc(Cl)cc4)c4ccc(Cl)cc4)cc23)CC1 [Compound 102],477,> 10000
COc1ccc(S(=O)(=O)N2CCC(Nc3n[nH]c4ccc(C(c5ccc(Cl)cc5)c5ccc(Cl)cc5)cc34)CC2)cc1 [Compound 119],144,> 10000
O=C(O)c1ccccc1S(=O)(=O)N1CCC(c2c3cc(C(c4ccc(Cl)cc4)c4ccc(Cl)cc4)ccc3nn2C2CC2)CC1 [Compound 123],5800,> 10000
NC(=O)Cc1cccc(N2CCC(c3nn(C4CC4)c4ccc(C(c5ccc(Cl)cc5)c5ccc(Cl)cc5)cc34)CC2)c1 [Compound 190],1080,> 10000
O=C(O)c1cccc(S(=O)(=O)N2CCC(c3n[nH]c4ccc(C(c5ccc(Cl)cc5)c5ccc(Cl)cc5)cc34)CC2)c1 [Compound 61],191,> 10000
O=C(O)CCC(=O)N1CCC(c2nn(C3CC3)c3ccc(C(c4ccc(Cl)cc4)c4ccc(Cl)cc4)cc23)CC1 [Compound 107],920,> 10000
O=C(NC1CCCC1)N1CCC(c2n[nH]c3ccc(C(c4ccc(Cl)cc4)c4ccc(Cl)cc4)cc23)CC1 [Compound 263],234,2330
O=C(O)CCNC(=O)c1ccc(-n2nc(C3CCN(S(=O)(=O)C(F)(F)F)CC3)c3cc(C(c4ccc(Cl)cc4)c4ccc(Cl)cc4)ccc32)cc1 [Compound 230],3260,> 10000
O=C(O)c1ccccc1Cn1nc(N2CCN(S(=O)(=O)C(F)(F)F)CC2)c2cc(C(c3ccc(Cl)cc3)c3ccc(Cl)cc3)ccc21 [Compound 45],941,> 10000
COC(=O)Cn1nc(N2CCN(S(=O)(=O)C(F)(F)F)CC2)c2cc(C(c3ccc(Cl)cc3)c3ccc(Cl)cc3)ccc21 [Compound 20],165,> 10000
O=C(O)c1cccc(CN2CCC(c3n[nH]c4ccc(C(c5ccc(Cl)cc5)c5ccc(Cl)cc5)cc34)C2)c1 (centres unmarked) [Compound 272],333,> 10000
O=S(=O)(N1CCC(c2n[nH]c3ccc(C(c4ccc(Cl)cc4)C4CCCCC4)cc23)CC1)C(F)(F)F (centres unmarked) [Compound 280],565,> 42000
O=C(O)Cc1ccc(N2CCC(c3n[nH]c4ccc(C(c5ccc(Cl)cc5)c5ccc(Cl)cc5)cc34)CC2)cc1 [Compound 215],2960,> 10000
O=S(=O)(c1cccc(C(F)(F)F)c1)N1CCC(c2n[nH]c3ccc(C(c4ccc(Cl)cc4)c4ccc(Cl)cc4)cc23)CC1 [Compound 59],374,> 10000

# Molecules with a lower EC50 [1], results first:
EC50 [1] [nM],EC50 [2] [nM],Structure (SMILES)
14,> 10000,CC(=O)n1nc(N2CCN(S(=O)(=O)C(F)(F)F)CC2)c2cc(C(c3ccc(Cl)cc3)c3ccc(Cl)cc3)ccc21 [Compound 44]
24,> 10000,Cn1nc(C2CCN(S(=O)(=O)c3ccc(C(N)=O)cc3)CC2)c2cc(C(c3ccc(Cl)cc3)c3ccc(Cl)cc3)ccc21 [Compound 64]
115,> 10000,O=C(O)c1cccc(S(=O)(=O)N2CCC(c3nn(C4CC4)c4ccc(C(c5ccc(Cl)cc5)c5ccc(Cl)cc5)cc34)CC2)c1 [Compound 88]
64,> 10000,NC(=O)c1cccc(C(=O)N2CCC(c3nn(C4CC4)c4ccc(C(c5ccc(Cl)cc5)c5ccc(Cl)cc5)cc34)CC2)c1 [Compound 98]
4,950,"O=C(O)c1ccc(S(=O)(=O)N2CCC(c3c4cc(C(c5ccc(Cl)cc5)c5ccc(Cl)cc5)ccc4nn3C3CC3)CC2)cc1Cl [Compound 161, 4-(4-(5-(bis(4-chlorophenyl)methyl)-2-cyclopropyl-2H-indazol-3-yl)piperidin-1-ylsulfonyl)-2-chlorobenzoic acid]"
6,> 10000,O=S(=O)(N1CCN(c2nn(CCO)c3ccc(C(c4ccc(Cl)cc4)c4ccc(Cl)cc4)cc23)CC1)C(F)(F)F [Compound 42]
71,> 10000,O=S(=O)(c1ccc(C(F)(F)F)cc1)N1CCC(c2n[nH]c3ccc(C(c4ccc(Cl)cc4)c4ccc(Cl)cc4)cc23)CC1 [Compound 32]
31,> 10000,O=S(=O)(N1CCC(c2nn(-c3ccccc3Cl)c3ccc(C(c4ccc(Cl)cc4)c4ccc(Cl)cc4)cc23)CC1)C(F)(F)F [Compound 48]
6,> 10000,"CNC(=O)c1ccc(S(=O)(=O)N2CCC(c3c4cc(C(c5ccc(Cl)cc5)c5ccc(Cl)cc5)ccc4nn3C3CC3)CC2)cn1 [Compound 155, 5-(4-(5-(bis(4-chlorophenyl)methyl)-2-cyclopropyl-2H-indazol-3-yl)piperidin-1-ylsulfonyl)-N-methylpicolinamide]"
112,> 10000,CC(C)(C)OC(=O)N1CCC(c2nn(CCO)c3ccc(C(c4ccc(Cl)cc4)c4ccc(Cl)cc4)cc23)CC1 [Compound 76]
99,> 10000,NC(=O)c1cccc(S(=O)(=O)N2CCC(Nc3n[nH]c4ccc(C(c5ccc(Cl)cc5)c5ccc(Cl)cc5)cc34)CC2)c1 [Compound 122]
2,2390,"O=C(O)c1ccc(S(=O)(=O)N2CCC(c3c4cc(C(c5ccc(Cl)cc5)c5ccc(Cl)cc5)ccc4nn3C3CC3)CC2)cc1F [Compound 166, 4-(4-(5-(bis(4-chlorophenyl)methyl)-2-cyclopropyl-2H-indazol-3-yl)piperidin-1-ylsulfonyl)-2-fluorobenzoic acid]"
2,5200,COc1ccc(C(c2ccc(OC)cc2)c2ccc3[nH]nc(C4CCN(S(=O)(=O)C(F)(F)F)CC4)c3c2)cc1 [Compound 67]
12,> 10000,"NC(=O)c1ccc(S(=O)(=O)N2CCC(c3c4cc(C(c5ccc(Cl)cc5)c5ccc(Cl)cc5)ccc4nn3C3CC3)CC2)cc1F [Compound 167, 4-(4-(5-(bis(4-chlorophenyl)methyl)-2-cyclopropyl-2H-indazol-3-yl)piperidin-1-ylsulfonyl)-2-fluorobenzamide]"
39,> 10000,NS(=O)(=O)c1ccc(C(=O)N2CCC(c3nn(CCO)c4ccc(C(c5ccc(Cl)cc5)c5ccc(Cl)cc5)cc34)CC2)cc1 [Compound 72]
